Data published in US20230131025A1, “QUINOLYL PHOSPHINE OXIDE COMPOUND, AND COMPOSITION AND APPLICATION THEREOF” (Betta Pharmaceuticals Co., Ltd., priority 2020, published 2023).

Columns and labels:
Test in all cases: Cell proliferation experiment (CellTiter Glo, 72 hours)
Type in all cases: cell-based
[1] = molecular target: Ba/F3 EGFR WT (Homo sapiens, UniProt P00533); conditions: read-out: BaF3 EGFR WT IC50
Description: (§1) Experiment 2 Cell Proliferation Experiment
(§2) Suspension cells: Ba/F3 cells with stable overexpression of Δ19del/T790M/C797S mutant gene, named Ba/F3-Δ19del/T790M/C797S; Ba/F3 cells with overexpression of EGFR WT, named Ba/F3 EGFR WT.
(§3) RPMI 1640 with 10% FBS and 1% Penicillin-Streptomycin, or DMEM with 10% FBS and 1% Penicillin-Streptomycin.
(§4) a) Diluting compounds being tested (20 mM stock solutions), as an initial concentration, to 10 mM with 100% DMSO, followed by diluting compounds serially in a 3-fold gradient such that each compound is diluted into 12 concentrations (Cat #P-05525, Labcyte).
(§5) b) Diluting the above compound solutions for 100-fold with culture medium to prepare 10-fold working solution.
(§6) b) Seeding cells into 96-well cell culture plate at a density of 2000 or 3000 cells/well, with 135 μL/well.
(§7) a) Adding the compound prepared in step 2 to the cell plate at 15 μL per well, resulting in a final maximum concentration of 10000 nM or 1111 nM. The compounds is diluted serially in a 3-fold gradient such that each compound is diluted into 9 concentrations, wherein the final concentration of DMSO is 0.1%. Blank control wells are added with medium (0.1% DMSO).
(§8) b) Re-incubating the cells in an incubator for 72 hours. 5. Detection
(§9) a) Adding 50 μL of CTG reagent (CellTiter Glo kit, promega, Cat #G7573) to the 96-well cell culture plate.
(§10) b) Shaking the plate for 2 minutes and reacting at room temperature for 10 minutes.
(§11) c) Reading the luminescence signal value (Lum) using PerkinElmer reader.
(§12) The cell survival inhibition rate of each well was calculated. The data was analyzed by GraphPad Prism 6.0 software. The dose-response curve was obtained by fitting the data with a nonlinear regression equation. The IC50 of each compound was calculated as follows:
(§13) Cell survival inhibition rate (%)=(1−(Lumcompound tested−Lummedium control)/(Lumcell control−Lummedium control))×100%
(§14) Y=Min+(Max−Min)/(1+10^((Log IC50−X)*Slope));
(§15) X: logarithm of compound concentration. Y: cell survival inhibition rate.

[2] = molecular target: Ba/F3-Δ19del/T790M/C797S (Homo sapiens, UniProt P00533, T790M/C797S, cells depend on it, form not given); conditions: read-out: Ba/F3/EGFR Δ19del/T790M/C797S IC50
Chain of Ba/F3-Δ19del/T790M/C797S (P00533 with tags, fused parts or gaps DEL746-750/T790M/C797S, form open): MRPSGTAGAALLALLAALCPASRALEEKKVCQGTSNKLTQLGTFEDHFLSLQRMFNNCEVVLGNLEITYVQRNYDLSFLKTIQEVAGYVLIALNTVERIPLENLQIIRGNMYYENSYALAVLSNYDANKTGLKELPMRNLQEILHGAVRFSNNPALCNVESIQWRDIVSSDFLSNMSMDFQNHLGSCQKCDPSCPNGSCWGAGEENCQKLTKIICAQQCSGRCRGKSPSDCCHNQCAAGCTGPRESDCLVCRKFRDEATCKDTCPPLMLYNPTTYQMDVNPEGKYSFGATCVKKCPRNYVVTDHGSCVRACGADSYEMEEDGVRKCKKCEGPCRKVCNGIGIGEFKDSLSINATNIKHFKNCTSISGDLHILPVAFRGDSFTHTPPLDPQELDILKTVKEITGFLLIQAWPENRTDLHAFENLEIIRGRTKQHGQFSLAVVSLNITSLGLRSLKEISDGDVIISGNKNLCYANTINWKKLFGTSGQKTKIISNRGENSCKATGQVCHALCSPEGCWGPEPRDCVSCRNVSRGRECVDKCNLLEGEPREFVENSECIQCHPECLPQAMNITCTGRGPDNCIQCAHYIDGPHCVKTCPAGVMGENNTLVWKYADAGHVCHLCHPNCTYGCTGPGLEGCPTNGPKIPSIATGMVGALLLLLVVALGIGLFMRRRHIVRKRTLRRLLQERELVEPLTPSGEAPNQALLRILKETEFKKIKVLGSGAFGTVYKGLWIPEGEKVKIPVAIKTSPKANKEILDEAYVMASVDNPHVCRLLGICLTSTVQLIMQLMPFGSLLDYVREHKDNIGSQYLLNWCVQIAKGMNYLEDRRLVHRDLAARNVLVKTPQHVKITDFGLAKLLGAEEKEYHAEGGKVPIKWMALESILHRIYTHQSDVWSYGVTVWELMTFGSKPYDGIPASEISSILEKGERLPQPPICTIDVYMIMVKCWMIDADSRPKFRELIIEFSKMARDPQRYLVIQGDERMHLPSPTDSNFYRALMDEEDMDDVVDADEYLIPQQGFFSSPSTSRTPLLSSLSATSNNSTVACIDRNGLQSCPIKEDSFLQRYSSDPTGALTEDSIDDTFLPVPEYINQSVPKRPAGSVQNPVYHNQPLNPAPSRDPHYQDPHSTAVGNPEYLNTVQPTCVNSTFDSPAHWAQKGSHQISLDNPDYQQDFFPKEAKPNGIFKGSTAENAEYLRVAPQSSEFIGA
Description: as §1, §2, §3, §4, §5, §6, §7, §8, §9, §10, §11, §12, §13, §14, §15

[3] = test system: human epidermal cancer cells A431 carrying EGFR WT; conditions: Homo sapiens, A-431
Description: as §1
Adherent cells: human epidermal cancer cells A431 carrying EGFR WT.
as §3, §4, §5, §6, §7, §8, §9, §10, §11, §12, §13, §14, §15

Chain of Ba/F3 EGFR WT (P00533 whole entry, change not shown): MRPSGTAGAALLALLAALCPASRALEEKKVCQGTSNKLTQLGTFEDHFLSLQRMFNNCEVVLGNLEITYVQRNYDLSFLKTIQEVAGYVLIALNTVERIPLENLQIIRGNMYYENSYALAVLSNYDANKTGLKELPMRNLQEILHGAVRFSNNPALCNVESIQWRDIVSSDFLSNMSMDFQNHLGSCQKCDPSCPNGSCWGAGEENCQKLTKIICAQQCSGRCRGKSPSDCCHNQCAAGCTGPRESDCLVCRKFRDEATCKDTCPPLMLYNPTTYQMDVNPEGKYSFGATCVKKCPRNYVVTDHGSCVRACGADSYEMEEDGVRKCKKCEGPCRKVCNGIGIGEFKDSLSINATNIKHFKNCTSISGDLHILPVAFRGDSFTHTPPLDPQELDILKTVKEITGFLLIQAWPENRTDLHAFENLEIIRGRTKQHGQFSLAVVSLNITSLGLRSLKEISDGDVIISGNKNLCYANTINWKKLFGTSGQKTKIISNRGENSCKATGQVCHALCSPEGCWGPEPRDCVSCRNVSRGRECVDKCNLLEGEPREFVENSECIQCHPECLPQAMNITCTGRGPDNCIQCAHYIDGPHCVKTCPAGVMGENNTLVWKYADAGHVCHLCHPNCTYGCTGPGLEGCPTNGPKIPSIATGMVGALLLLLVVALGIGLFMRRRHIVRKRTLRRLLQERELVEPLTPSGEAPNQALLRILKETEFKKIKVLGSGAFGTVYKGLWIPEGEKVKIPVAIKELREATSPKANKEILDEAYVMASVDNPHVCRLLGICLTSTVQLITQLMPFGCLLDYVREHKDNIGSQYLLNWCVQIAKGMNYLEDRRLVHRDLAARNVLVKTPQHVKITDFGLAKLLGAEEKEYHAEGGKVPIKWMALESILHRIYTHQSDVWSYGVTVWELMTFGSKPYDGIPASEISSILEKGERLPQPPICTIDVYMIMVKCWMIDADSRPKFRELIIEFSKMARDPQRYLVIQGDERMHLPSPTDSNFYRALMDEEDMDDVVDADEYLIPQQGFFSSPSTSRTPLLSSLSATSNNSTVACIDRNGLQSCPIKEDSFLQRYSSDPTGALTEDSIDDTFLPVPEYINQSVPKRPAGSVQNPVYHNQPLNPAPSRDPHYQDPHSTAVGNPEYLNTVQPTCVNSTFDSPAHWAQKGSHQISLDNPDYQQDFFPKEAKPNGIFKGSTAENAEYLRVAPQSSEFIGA

| Structure (SMILES) | GI50 [1] [nM] | GI50 [2] [nM] | IC50 [3] [nM] |
| --- | --- | --- | --- |
| COc1cc(Nc2ncc(Br)c(Nc3ccc4nc(C5CC5)ccc4c3P(C)(C)=O)n2)c(C)cc1N1CCC(OC)CC1 [Compound J-033, (6-((5-Bromo-2-((5-methoxy-4-(4-methoxypiperidin-1-yl)-2-methylphenyl)amino)pyrimidin-4-yl)amino)-2-cyclopropylquinolin-5-yl)dimethylphosphine oxide] | 611 | 12.9 | > 10000 |
| COc1cc(N2CCC(N3CCN(C)CC3)CC2)c(-c2cnn(C)n2)cc1Nc1ncc(Br)c(Nc2ccc3nc(C4CC4)ccc3c2P(C)(C)=O)n1 [Compound J-046, (6-((5-Bromo-2-((2-methoxy-5-(2-methyl-2H-1,2,3-triazol-4-yl)-4-(4-(4-methylpiperazin-1-yl)piperidin-1-yl)phenyl)amino)pyrimidin-4-yl)amino)-2-cyclopropylquinolin-5-yl)dimethylphosphine oxide] | 117 | 1.2 | 475 |
| COc1cc(N2CCN(c3ccncc3)CC2)c(-c2cnn(C)n2)cc1Nc1ncc(Br)c(Nc2ccc3nc(C4CC4)ccc3c2P(C)(C)=O)n1 [Compound J-047, (6-((5-Bromo-2-((2-methoxy-5-(2-methyl-2H-1,2,3-triazol-4-yl)-4-(4-(pyridin-4-yl)piperazin-1-yl)phenyl)amino)pyrimidin-4-yl)amino)-2-cyclopropylquinolin-5-yl)dimethylphosphine oxide] | 21 | 0.5 | 176 |
| COc1cc(NCC2CCN(C)CC2)c(-c2cnn(C)c2)cc1Nc1ncc(Br)c(Nc2ccc3nc(C4CC4)ccc3c2P(C)(C)=O)n1 [Compound J-052] | 123 | 2.6 | 279 |
| COc1cc(NCC2CCOCC2)c(-c2cnn(C)c2)cc1Nc1ncc(Br)c(Nc2ccc3nc(C4CC4)ccc3c2P(C)(C)=O)n1 [Compound J-053, (6-((5-Bromo-2-((2-methoxy-5-(1-methyl-1H-pyrazol-4-yl)-4-(((tetrahydro-2H-pyran-4-yl)methyl)amino)phenyl)amino)pyrimidin-4-yl)amino)-2-cyclopropylquinolin-5-yl)dimethylphosphine oxide] | 54 | 3.9 | 753 |
| COc1cc(N2CCN(C3CCCC3)CC2)c(-c2cnn(C)c2)cc1Nc1ncc(Br)c(Nc2ccc3nc(C4CC4)ccc3c2P(C)(C)=O)n1 [Compound J-055, (6-((5-Bromo-2-((4-(4-cyclopentylpiperazin-1-yl)-2-methoxy-5-(1-methyl-1H-pyrazol-4-yl)phenyl)amino)pyrimidin-4-yl)amino)-2-cyclopropylquinolin-5-yl)dimethylphosphine oxide] | 79 | 12.4 | – |
| COc1cc(N2CCC(N3CCOCC3)CC2)c(-c2cnn(C)c2)cc1Nc1ncc(Br)c(Nc2ccc3nc(C4CC4)ccc3c2P(C)(C)=O)n1 [Compound J-059, (6-((5-Bromo-2-((2-methoxy-5-(1-methyl-1H-pyrazol-4-yl)-4-(4-morpholinopiperidine-1-yl)phenyl)amino)pyrimidin-4-yl)amino)-2-cyclopropylquinolin-5-yl)dimethylphosphine oxide] | 10.6 | 0.4 | 264 |

The remaining lines, values ahead:

| GI50 [1] [nM] | GI50 [2] [nM] | IC50 [3] [nM] | Structure (SMILES) |
| --- | --- | --- | --- |
| 67.6 | 10.9 | 896 | COc1cc(N2CCN(c3cc(OC)c(Nc4ncc(Br)c(Nc5ccc6nc(C7CC7)ccc6c5P(C)(C)=O)n4)cc3-c3cnn(C)c3)CC2)ccn1 [Compound J-043] |
| 25.2 | 1 | 432 | COc1ncc(N2CCN(c3cc(OC)c(Nc4ncc(Br)c(Nc5ccc6nc(C7CC7)ccc6c5P(C)(C)=O)n4)cc3-c3cnn(C)c3)CC2)cn1 [Compound J-044, (6-((5-Bromo-2-((2-methoxy-4-(4-(2-methoxypyrimidin-5-yl)piperazin-1-yl)-5-(1-methyl-1H-pyrazol-4-yl)phenyl)amino)pyrimidin-4-yl)amino)-2-cyclopropylquinolin-5-yl)dimethylphosphine oxide] |
| 130 | 13.5 | 710 | COc1cc(N2CCN(c3cnc(N(C)C)cn3)CC2)c(-c2cnn(C)c2)cc1Nc1ncc(Br)c(Nc2ccc3nc(C4CC4)ccc3c2P(C)(C)=O)n1 [Compound J-045, (6-((5-Bromo-2-((4-(4-(5-(dimethylamino)pyrazin-2-yl)piperazin-1-yl)-2-methoxy-5-(1-methyl-1H-pyrazol-4-yl)phenyl)amino)pyrimidin-4-yl)amino)-2-cyclopropylquinolin-5-yl)dimethylphosphine oxide] |
| 52 | 7.6 | 1100 | COc1cc(N2CCN(c3nccs3)CC2)c(-c2cnn(C)c2)cc1Nc1ncc(Br)c(Nc2ccc3nc(C4CC4)ccc3c2P(C)(C)=O)n1 [Compound J-048, (6-((5-Bromo-2-((2-methoxy-5-(1-methyl-1H-pyrazol-4-yl)-4-(4-(thiazol-2-yl)piperazin-1-yl)phenyl)amino)pyrimidin-4-yl)amino)-2-cyclopropylquinolin-5-yl)dimethylphosphine oxide] |
| 109 | 8.5 | 2300 | COc1cncc(N2CCN(c3cc(OC)c(Nc4ncc(Br)c(Nc5ccc6nc(C7CC7)ccc6c5P(C)(C)=O)n4)cc3-c3cnn(C)c3)CC2)n1 [Compound J-049, (6-((5-Bromo-2-((2-methoxy-4-(4-(6-methoxypyrazin-2-yl)piperazin-1-yl)-5-(1-methyl-1H-pyrazol-4-yl)phenyl)amino)pyrimidin-4-yl)amino)-2-cyclopropylquinolin-5-yl)dimethylphosphine oxide] |
| 42.2 | 1.8 | 861 | COc1cc(N2CCN(c3cccc(=O)n3C)CC2)c(-c2cnn(C)c2)cc1Nc1ncc(Br)c(Nc2ccc3nc(C4CC4)ccc3c2P(C)(C)=O)n1 [Compound J-050, 6-(4-(4-((5-Bromo-4-((2-cyclopropyl-5-(dimethylphosphoryl)quinolin-6-yl)amino)pyrimidin-2-yl)amino)-5-methoxy-2-(1-methyl-1H-pyrazol-4-yl)phenyl)piperazin-1-yl)-1-methylpyridin-2(1H)-one] |
| 15.8 | 0.8 | 143 | COc1cc(N2CCN(C)CC2)c(-c2cnn(C)c2)cc1Nc1ncc(Br)c(Nc2ccc3nc(C4CC4)ccc3c2P(C)(C)=O)n1 [Compound J-054, (6-((5-Bromo-2-((2-methoxy-5-(1-methyl-1H-pyrazol-4-yl)-4-(4-methylpiperazin-1-yl)phenyl)amino)pyrimidin-4-yl)amino)-2-cyclopropylquinolin-5-yl)dimethylphosphine oxide] |
| 38 | 0.8 | 1100 | COc1cc(N2CCN(c3cccnc3)CC2)c(-c2cnn(C)c2)cc1Nc1ncc(Br)c(Nc2ccc3nc(C4CC4)ccc3c2P(C)(C)=O)n1 [Compound J-056, (6-((5-Bromo-2-((2-methoxy-5-(1-methyl-1H-pyrazol-4-yl)-4-(4-(pyridin-3-yl)piperazin-1-yl)phenyl)amino)pyrimidin-4-yl)amino)-2-cyclopropylquinolin-5-yl)dimethylphosphine oxide] |
| 54 | 3 | 328 | COc1cc(N2CCN(c3ccncc3)CC2)c(-c2cnn(C)c2)cc1Nc1ncc(Br)c(Nc2ccc3nc(C4CC4)ccc3c2P(C)(C)=O)n1 [Compound J-057, (6-((5-Bromo-2-((2-methoxy-5-(1-methyl-1H-pyrazol-4-yl)-4-(4-(pyridin-4-yl)piperazin-1-yl)phenyl)amino)pyrimidin-4-yl)amino)-2-cyclopropylquinolin-5-yl)dimethylphosphine oxide] |
| 117 | 5.8 | 649 | COc1cc(N2CCN(c3cnccn3)CC2)c(-c2cnn(C)c2)cc1Nc1ncc(Br)c(Nc2ccc3nc(C4CC4)ccc3c2P(C)(C)=O)n1 [Compound J-058, (6-((5-Bromo-2-((2-methoxy-5-(1-methyl-1H-pyrazol-4-yl)-4-(4-(pyrazin-2-yl)piperazin-1-yl)phenyl)amino)pyrimidin-4-yl)amino)-2-cyclopropylquinolin-5-yl)dimethylphosphine oxide] |
| 54 | 2.3 | 366 | COc1cc(N2CCN(c3ccncn3)CC2)c(-c2cnn(C)c2)cc1Nc1ncc(Br)c(Nc2ccc3nc(C4CC4)ccc3c2P(C)(C)=O)n1 [Compound J-060, (6-((5-Bromo-2-((2-methoxy-5-(1-methyl-1H-pyrazol-4-yl)-4-(4-(pyrimidin-4-yl)piperazin-1-yl)phenyl)amino)pyrimidin-4-yl)amino)-2-cyclopropylquinolin-5-yl)dimethylphosphine oxide] |
